Holding throughout (format): in vitro ADME
One data set deals with T1, CYP2D6 (Homo sapiens, UniProt P10635).
T1 construct: a human liver microsome solution containing three CYP-specific substrates; from tissue; host or cells: human liver microsomes
Description: CYP inhibition test (1): inhibition rate (%) at one concentration, CYP2D6. The settings on record: human liver microsomes, pH 7.4, probe bufuralol (0.01 mmol/L); test compound 0.01 mmol/L, human liver microsome 0.1 mg/mL, substrate bufuralol, 37° C. 10 minutes; read-out: inhibition rate (%) 2D6. How it is done:
(§1) A metabolic reaction was initiated by adding and mixing a test compound solution (final concentration 0.01 mmol/L) and a NADH/NADPH solution (final concentration 1 mmol/L) to a human liver microsome solution containing three CYP-specific substrates (final concentration 100 mmol/L potassium phosphate buffer solution (pH 7.4), 5 mmol/L magnesium chloride, 0.1 mg/mL human liver microsome, 0.005 mmol/L diclofenac (for CYP2C9), 0.01 mmol/L bufuralol (for […]), 0.005 mmol/L midazolam (for CYP3A4)). As an internal standard solution, a solution of each of stable isotopes of the metabolites (50 ng/mL [13C6] hydroxy diclofenac, 5 ng/mL [2H9] hydroxy bufuralol, and 5 ng/mL [13C6] hydroxy midazolam (all stable isotopes)) in methanol was prepared and used as a quenching solution.
(§2) Specifically, a metabolic reaction was initiated by adding and mixing 2 μL of a solution of a test compound in acetonitrile (or acetonitrile as a control) to 178 μL of a human liver microsome solution in ice water, followed by preincubation at 37° C. for 1 minute, and then adding 20 μL of a NADH/NADPH solution thereto. After incubation at 37° C. for 10 minutes, 50 μL of the reaction mixture was taken, and then it was added and mixed to 500 μL of a quenching solution to quech the reaction. The mixture was centrifuged (6130 g, 4° C., 10 minutes) and the supernatant was used as a sample for LC-MS/MS.
(§3) Peak area ratio ([peak area of metabolite]/[peak area of corresponding stable isotope]) was calculated for a metabolite and a stable isotope of the metabolite as measurement object. By comparing the peak area ratio of each test compound solution with that of the control, the inhibition rate (%) of each CYP species for each test compound was calculated from (1-[peak area ratio of each test compound solution]/[peak area ratio of control])×100.
(In general: Liver microsomes are a subcellular fraction often used to study metabolism.)

The target of a further data set is T2, CYP3A4 (Homo sapiens, UniProt P08684).
T2 construct: a human liver microsome solution containing three CYP-specific substrates; from tissue; host or cells: human liver microsomes
The experiment in a line: CYP inhibition test (1): inhibition rate (%) at one concentration, CYP3A4. As to conditions: human liver microsomes, pH 7.4, probe midazolam (0.005 mmol/L); test compound 0.01 mmol/L, human liver microsome 0.1 mg/mL, substrate midazolam, 37° C. 10 minutes; read-out: inhibition rate (%) 3A4. On the procedure:
as §1, §2, §3

A short description of data set [1]: Metabolic stability test (human liver microsome, hepatic intrinsic clearance). As to conditions: human liver microsomes, pH 7.4; human liver microsome 0.2 mg/mL, test compound 0.001 mmol/L, 37° C., 0, 10 and 20 minutes. On the procedure: A metabolic reaction was initiated by adding and mixing a test compound solution (final concentration 0.001 mmol/L) and a NADH/NADPH solution (final concentration 1 mmol/L) to a human liver microsome solution (final concentration 100 mmol/L potassium phosphate buffer solution (pH 7.4), 5 mmol/L magnesium chloride, 0.2 mg/ml, human liver microsome). A solution of the internal standard in methanol was prepared and used as a quenching solution.
Specifically, a metabolic reaction was initiated by adding and mixing 2.5 μL of a solution of a test compound in acetonitrile to 222.5 μL of a human liver microsome solution in ice water, followed by preincubation at 37° C. for 1 minute, and then adding 25 μL of a NADH/NADPH solution thereto.
(§4) The mixture was centrifuged (6130 g, 4° C., 10 minutes) and the supernatant was used as a sample for LC-MS/MS.
Peak area ratio ([peak area of test compound]/[peak area of internal standard]) was calculated for the test compound and the internal standard.
The residual ratio of the test compound was calculated from ([Ratio of peak areas at each reaction time]/[Ratio of peak areas at 0 minute reaction time]).

The nature of data set [2]: Protein binding rate test (human serum, equilibrium dialysis). The settings on record: test compound 0.001 mmol/L, equilibrium dialysis 37° C. 6 hours. How it is done: A serum sample was prepared by adding a test compound solution to a human serum (final concentration of the test compound: 0.001 mmol/L). The serum sample and Dulbecco's Phosphate-Buffered Saline (D-PBS(−)) were added to the wells separated by a dialysis membrane to start the reaction. A solution of the internal standard in methanol was prepared and used as a quenching solution.
Specifically, the dialysis membrane (cut-off molecular weight 12000-14000) was pre-conditioned by immersing it in distilled water, followed by 20% ethanol. Then, the membrane was washed with D-PBS(−) and set in an equilibrium dialysis kit. Then, 150 μL of D-PBS(−) was added to one part of each well divided by the dialysis membrane, and 150 μL of serum sample was added to the other part. After sealing all wells and incubation at 37° C. for 6 hours, 30 μL from the serum side and 90 μL from the PBS side of each well were collected and mixed with 90 μL of D-PBS(−) or 30 μL of blank serum and 480 μL of a quenching solution to quench the reaction.
as §4
Peak area ratio ([peak area of test compound]/[peak area of internal standard]) was calculated for the test compound and the internal standard. By comparing the peak area ratio of the PBS side for each test compound with that of the serum side, the protein binding rate (%) of each test compound was calculated from (1-[peak area ratio of PBS side]/[peak area ratio of serum side])×100.
A general note: In equilibrium dialysis only unbound substance equilibrates across the membrane.

T2 sequence (P08684 whole entry): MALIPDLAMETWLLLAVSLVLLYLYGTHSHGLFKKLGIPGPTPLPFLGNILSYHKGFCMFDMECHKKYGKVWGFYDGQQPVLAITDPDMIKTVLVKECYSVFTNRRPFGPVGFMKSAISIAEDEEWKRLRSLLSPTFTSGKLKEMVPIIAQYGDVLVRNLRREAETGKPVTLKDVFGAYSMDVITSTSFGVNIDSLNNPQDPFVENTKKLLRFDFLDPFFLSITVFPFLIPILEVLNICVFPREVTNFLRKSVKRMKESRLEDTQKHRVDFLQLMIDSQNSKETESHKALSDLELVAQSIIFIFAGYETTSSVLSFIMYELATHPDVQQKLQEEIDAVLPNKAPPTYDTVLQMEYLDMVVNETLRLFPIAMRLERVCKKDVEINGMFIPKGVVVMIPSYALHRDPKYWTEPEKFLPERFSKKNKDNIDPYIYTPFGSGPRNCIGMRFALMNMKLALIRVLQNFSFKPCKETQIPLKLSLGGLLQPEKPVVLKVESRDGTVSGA
T1 sequence (P10635 whole entry): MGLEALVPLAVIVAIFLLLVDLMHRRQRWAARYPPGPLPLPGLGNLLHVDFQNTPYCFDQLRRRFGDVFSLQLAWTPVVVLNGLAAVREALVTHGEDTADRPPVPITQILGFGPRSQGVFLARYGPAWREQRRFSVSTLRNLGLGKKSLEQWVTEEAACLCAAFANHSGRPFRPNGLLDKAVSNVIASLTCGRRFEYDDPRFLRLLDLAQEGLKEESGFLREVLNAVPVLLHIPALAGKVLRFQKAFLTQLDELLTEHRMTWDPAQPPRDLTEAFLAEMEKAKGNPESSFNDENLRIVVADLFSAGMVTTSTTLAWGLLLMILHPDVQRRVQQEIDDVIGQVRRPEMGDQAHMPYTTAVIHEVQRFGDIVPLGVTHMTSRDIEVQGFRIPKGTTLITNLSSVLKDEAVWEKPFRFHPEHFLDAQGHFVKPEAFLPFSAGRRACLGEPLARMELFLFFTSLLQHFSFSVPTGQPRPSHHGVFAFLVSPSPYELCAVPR

By inhibition is commonly meant the change of the read-out against control, counted positive when it falls. By microsomal CLint is commonly meant a measure of how fast metabolising enzymes remove a compound, apart from limits set by blood flow. A low value points to greater metabolic stability. The term fraction unbound denotes the share of the substance not bound to proteins or other matrix. A higher fraction unbound goes with much free substance. `Cc1cc(N2CC(C)(C)N[C@@H]3CCCC[C@@H]32)cc(F)c1OC(F)(F)CO` [Example 58]: the results for the inhibition at 10 min, 0.01 mmol/L on CYP2D6 and on CYP3A4 were 16.1% and 13.1%, respectively. The microsomal CLint at 0.001 mmol/L in data set [1] is < 50 µL/min/mg. Further, the fraction unbound at 6 h, 0.001 mmol/L in data set [2] is 0.358.
Turning to `CC1(C)CN(c2ccc(OC(F)(F)CO)cc2F)[C@H]2CCCC[C@H]2N1` [Example 61, 2-(4-((4aR,8aS)-3,3-dimethyloctahydroquinoxalin-1(2H)-yl)-3-fluorophenoxy)-2,2-difluoroethan-1-ol 1/2fumarate], the figures for the inhibition at 10 min, 0.01 mmol/L on CYP2D6 and on CYP3A4 were 16.1% and -2.7%, respectively. Also, the intrinsic metabolic clearance (microsomal CLint) at 0.001 mmol/L in data set [1] was < 50 µL/min/mg. In data set [2], the fraction unbound at 6 h, 0.001 mmol/L is 0.337.
On the same counts, the results for `CC1(C)CN(c2cc(Br)c(OCCO)cc2F)[C@H]2CCCC[C@H]2N1` [Example 62] are 17.8%, -1.6%, < 50 µL/min/mg and 0.404.
For the compound `CC1(C)CN(c2ccc(OCCO)c(Br)c2F)[C@H]2CCCC[C@H]2N1` [Example 63], the inhibition at 10 min, 0.01 mmol/L on CYP2D6 is 19.2%; on CYP3A4, 6.1%. In data set [1], this compound yielded a microsomal CLint at 0.001 mmol/L of 84 µL/min/mg. Besides, the unbound share (fraction unbound) at 6 h, 0.001 mmol/L in data set [2] was 0.261.
On to `CC1(C)CN(c2ccc(OCCO)cc2Cl)[C@H]2CCCC[C@H]2N1` [Example 64, 2-(3-chloro-4-((4aR,8aS)-3,3-dimethyloctahydroquinoxalin-1(2H)-yl)phenoxy)ethan-1-ol 1/2fumarate], for which the inhibition at 10 min, 0.01 mmol/L on CYP2D6 was 21.6%; at CYP3A4 it was 3.9%. In data set [1], the microsomal CLint at 0.001 mmol/L is < 50 µL/min/mg. In addition, in data set [2], the fraction unbound at 6 h, 0.001 mmol/L amounted to 0.499.
`Cc1c(OC(F)(F)CO)ccc(N2CC(C)(C)N[C@H]3CCCC[C@H]32)c1F` [Example 69, 2-(4-((4aS,8aR)-3,3-dimethyloctahydroquinoxalin-1(2H)-yl)-3-fluoro-2-methylphenoxy)-2,2-difluoroethan-1-ol 1/2fumarate]: the inhibition at 10 min, 0.01 mmol/L was determined as 45.6% at CYP2D6 and 19.7% at CYP3A4. Besides, the intrinsic clearance (microsomal CLint) at 0.001 mmol/L in data set [1] is < 50 µL/min/mg. Besides, the fraction unbound at 6 h, 0.001 mmol/L in data set [2] was 0.211.
On the same counts, the results for `Cc1c(OC(F)(F)CO)ccc(N2CC(C)(C)N[C@@H]3CCCC[C@@H]32)c1F` [Example 70] are 28.4%, 17.6%, < 50 µL/min/mg and 0.195.
On the same counts, the results for `CC1(C)CN(c2cc(F)c(OC(F)(F)CO)cc2F)[C@H]2CCCC[C@H]2N1` [Example 71] are 28.8%, -3.4%, < 50 µL/min/mg and 0.285.
On the same counts, the results for `CC1(C)CN(c2cc(F)c(OCCO)cc2F)[C@H]2CCCC[C@H]2N1` [Example 72] are 17.9%, -2.4%, < 50 µL/min/mg and 0.766.
With `CC1(C)CN(c2ccc(OC(F)(F)CO)c(F)c2F)[C@H]2CCCC[C@H]2N1` [Example 73], the inhibition at 10 min, 0.01 mmol/L is 21.5% on CYP2D6 and 5.9% on CYP3A4. Further, in data set [1], the microsomal CLint at 0.001 mmol/L was < 50 µL/min/mg. This compound gave a fraction unbound at 6 h, 0.001 mmol/L in data set [2] of 0.267.
As to `CC1(C)CN(c2cc(Cl)c(OC(F)(F)CO)cc2F)[C@H]2CCCC[C@@H]2N1` [Example 75], the values for the inhibition at 10 min, 0.01 mmol/L on CYP2D6 and at CYP3A4 were 19.3% and 9.9%, respectively. Besides, the microsomal CLint at 0.001 mmol/L in data set [1] is < 50 µL/min/mg. The free fraction (fraction unbound) at 6 h, 0.001 mmol/L in data set [2] is 0.277.
For `CC1(C)CN(c2cc(Cl)c(OC(F)(F)CO)cc2F)[C@@H]2CCCC[C@H]2N1` [Example 76], the inhibition at 10 min, 0.01 mmol/L at CYP2D6 worked out at 21.9%; on CYP3A4 it was 12.4%. Moreover, the microsomal CLint at 0.001 mmol/L in data set [1] is < 50 µL/min/mg. This compound also showed a fraction unbound at 6 h, 0.001 mmol/L in data set [2] of 0.308.
On the same counts, the results for `CC1(C)CN(c2cc(F)c(OC(F)(F)CO)cc2F)[C@H]2CCCC[C@@H]2N1` [Example 77] are 18.1%, -1.9%, < 50 µL/min/mg and 0.411.
On the same counts, the results for `Cc1c(OC(F)(F)CO)ccc(N2CC(C)(C)N[C@H]3CCCC[C@@H]32)c1F` [Example 79] are 38.8%, 17.1%, < 50 µL/min/mg and 0.289.
On the same counts, the results for `CC1(C)CN(c2ccc(OC(F)(F)CO)c(Cl)c2F)[C@@H]2CCCC[C@H]2N1` [Example 80] are 20.9%, 17.6%, 57 µL/min/mg and 0.21.

Values taken from US20240409519A1, “HYDROGENATED QUINOXALINES” (OTSUKA PHARMACEUTICAL CO., LTD., priority 2021, published 2024).
